Test results published in patent US8420605B2, “Hydrogel compositions” (The University of Strathclyde, priority 2005, dated 2013).
Ends that are not written are not given here. * marks the point of attachment. Fmoc = O=C(OCC1c2ccccc2-c2ccccc21)*; Cbz = O=C(OCc1ccccc1)*

Assays:
[1] = Xu et al., J. Am. Chem. Soc. 2003, 125, 13680; cited from earlier work
[2] = Preparation of self-assembled peptide hydrogels by pH adjustment (gel formation); type: physicochemical
[3] = as above; type: physicochemical; details: for pH: pH at which the gel formed at the indicated concentrations (Table 3)
Protocol: Fmoc peptides (from BACHEM Ltd) were weighed out into 4 ml glass vials. 2 ml purified water was added followed by sonication for 30-60 seconds. 0.5M NaOH solution was added in 50 μl droplets until a clear solution was formed. 0.1M HCl was added to the solution by stepwise addition of 50 μl followed by mixing using a vortex. pH values were estimated by transferring a spatula tip of hydrogel onto universal indicator paper.
Self-assembled scaffolds were prepared by first suspending the Fmoc-dipeptide in purified water. Upon increase of the pH by addition of concentrated NaOH (thus de-protonating the carboxylic acid group) to a value of >8, a clear solution was obtained. To this solution, concentrated hydrochloric acid was added drop wise until the pH of the solution became 7, at which point a clear, self-supporting gel was formed.
Table 3 below identifies various peptide derivatives (incorporating an aromatic stacking ligand) and mixtures thereof that formed gels at a pH of 6-8 at the indicated concentrations: […]

[4] = Hydrogel formation from Fmoc-amino acid/di-peptide combinations (tripeptides); type: physicochemical; details: Fmoc-AA + di-peptide combination
Text: The inventors thought it would be sensible to retain the two consecutive phenylalanine residues in the peptide, but introduce a third amino acid immediately after the Fmoc cap and before the Phe-Phe. […] In addition, the inventors also made the tripeptide: Fmoc-Leu-Leu-Leu.

| Substance | pH value for gelation [1] | pH [3] | Gel formed? [4] | other results |
| --- | --- | --- | --- | --- |
| Fmoc-D-Ala-D-Ala | 3 | – | – | – |
| Fmoc-Gly-Gly-OH | 3 | 3-5 | – | Gel? ([2]; Component 1 10-40 mM/L, pH 3-5): ✓ |
| Cbz-Leu-Leu-Leu-OH | – | 7 | – | Gel? ([3]; Component 1 5-20 mM/L, pH 7): ✓ |
| Fmoc-Ala-Phe-Phe | – | – | ✓ | – |
| Fmoc-Leu-Phe-Phe | – | – | ✓ | – |
| Fmoc-Leu-Gly-OH | – | 2 | – | Gel? ([2]; Component 1 20 mM/L, pH 2): ✓ |
| Fmoc-Ala-Ala-OH | – | 3 | – | Gel? ([2]; Component 1 40 mM/L, pH 3): ✓ |
| Fmoc-Phe-Gly-OH | – | 3-5 | – | Gel? ([2]; Component 1 20 mM/L, pH 3-5): ✓ |
| Fmoc-L-Ala-L-Ala | 3 | – | – | – |
| Fmoc-Val-Phe-Phe | – | – | ✓ | – |
| Fmoc-Gly-D-Ala | 5 | – | – | – |
| Fmoc-Phe-Phe-Phe-OH | – | 7 | ✓ | Gel? ([3]; Component 1 5-20 mM/L, pH 7): ✓ |
| Fmoc-Leu-Leu-Leu | – | – | ✓ | – |
| Cbz-Phe-Phe-OH | – | 6-8 | – | Gel? ([3]; Component 1 10-30 mM/L, pH 6-8): ✓ |
| Fmoc-Gly-L-SER | 5 | – | – | – |
